Source: patent US20260028326A1, “COMPOUND BASED ON ISOINDOLINE-SUBSTITUTED GLUTARIMIDE BACKBONE AND USE THEREOF” (GLUETACS THERAPEUTICS (SHANGHAI) CO., LTD., priority 2022, published 2026)

Assays:
[1] = target: human Cereblon WT GST-tagged protein (Homo sapiens (Human), UniProt Q96SW2); experiment: CRBN-binding affinity, HTRF (CEREBLON BINDING kit)
Method in brief: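 GST-tagged human WT Cereblon incubated with compound, then Thalidomide-Re tracer and anti-GST Eu antibody added. Displacement read by HTRF, reported as CRBN binding inhibition rate against blank control wells without protein.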

[2] = target: IKZF1 protein (Homo sapiens (Human), UniProt Q13422+Q96SW2); experiment: Western-blot assay of substrate protein degradation in hPBMC, IKZF1; assay type: cell-based; settings: for residual substrate protein level, IKZF1: hPBMC cells, compound 500 nM, 24 hours, Western blot
IKZF1 protein, sequence (Q13422 whole entry): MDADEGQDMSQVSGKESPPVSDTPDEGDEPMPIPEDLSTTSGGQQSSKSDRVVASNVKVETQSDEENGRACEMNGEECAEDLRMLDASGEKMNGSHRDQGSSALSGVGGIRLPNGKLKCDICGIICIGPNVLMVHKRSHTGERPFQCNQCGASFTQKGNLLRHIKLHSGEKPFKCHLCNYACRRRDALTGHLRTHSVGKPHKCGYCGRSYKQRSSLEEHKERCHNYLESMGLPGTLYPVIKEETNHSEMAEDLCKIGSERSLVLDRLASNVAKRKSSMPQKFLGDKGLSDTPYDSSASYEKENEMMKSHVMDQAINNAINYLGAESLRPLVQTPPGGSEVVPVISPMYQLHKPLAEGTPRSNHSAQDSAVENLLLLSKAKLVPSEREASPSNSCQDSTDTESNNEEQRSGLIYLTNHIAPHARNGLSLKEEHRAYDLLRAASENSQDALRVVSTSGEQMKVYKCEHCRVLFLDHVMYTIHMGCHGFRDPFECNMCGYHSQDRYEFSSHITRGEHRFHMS
IKZF1 protein, sequence (Q96SW2 whole entry): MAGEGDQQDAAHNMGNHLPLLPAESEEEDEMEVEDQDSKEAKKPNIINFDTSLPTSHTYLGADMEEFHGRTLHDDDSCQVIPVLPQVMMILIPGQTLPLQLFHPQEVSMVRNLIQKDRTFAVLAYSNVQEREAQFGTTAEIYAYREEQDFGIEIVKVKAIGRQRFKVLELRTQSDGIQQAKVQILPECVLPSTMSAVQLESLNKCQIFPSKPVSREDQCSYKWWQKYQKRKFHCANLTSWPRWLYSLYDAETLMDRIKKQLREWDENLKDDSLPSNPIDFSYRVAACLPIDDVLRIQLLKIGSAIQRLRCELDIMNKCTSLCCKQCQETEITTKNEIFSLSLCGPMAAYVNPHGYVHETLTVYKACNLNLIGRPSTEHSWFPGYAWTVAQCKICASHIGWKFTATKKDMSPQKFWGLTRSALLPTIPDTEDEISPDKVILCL
IKZF1 protein, sequence (Q16531 whole entry partner): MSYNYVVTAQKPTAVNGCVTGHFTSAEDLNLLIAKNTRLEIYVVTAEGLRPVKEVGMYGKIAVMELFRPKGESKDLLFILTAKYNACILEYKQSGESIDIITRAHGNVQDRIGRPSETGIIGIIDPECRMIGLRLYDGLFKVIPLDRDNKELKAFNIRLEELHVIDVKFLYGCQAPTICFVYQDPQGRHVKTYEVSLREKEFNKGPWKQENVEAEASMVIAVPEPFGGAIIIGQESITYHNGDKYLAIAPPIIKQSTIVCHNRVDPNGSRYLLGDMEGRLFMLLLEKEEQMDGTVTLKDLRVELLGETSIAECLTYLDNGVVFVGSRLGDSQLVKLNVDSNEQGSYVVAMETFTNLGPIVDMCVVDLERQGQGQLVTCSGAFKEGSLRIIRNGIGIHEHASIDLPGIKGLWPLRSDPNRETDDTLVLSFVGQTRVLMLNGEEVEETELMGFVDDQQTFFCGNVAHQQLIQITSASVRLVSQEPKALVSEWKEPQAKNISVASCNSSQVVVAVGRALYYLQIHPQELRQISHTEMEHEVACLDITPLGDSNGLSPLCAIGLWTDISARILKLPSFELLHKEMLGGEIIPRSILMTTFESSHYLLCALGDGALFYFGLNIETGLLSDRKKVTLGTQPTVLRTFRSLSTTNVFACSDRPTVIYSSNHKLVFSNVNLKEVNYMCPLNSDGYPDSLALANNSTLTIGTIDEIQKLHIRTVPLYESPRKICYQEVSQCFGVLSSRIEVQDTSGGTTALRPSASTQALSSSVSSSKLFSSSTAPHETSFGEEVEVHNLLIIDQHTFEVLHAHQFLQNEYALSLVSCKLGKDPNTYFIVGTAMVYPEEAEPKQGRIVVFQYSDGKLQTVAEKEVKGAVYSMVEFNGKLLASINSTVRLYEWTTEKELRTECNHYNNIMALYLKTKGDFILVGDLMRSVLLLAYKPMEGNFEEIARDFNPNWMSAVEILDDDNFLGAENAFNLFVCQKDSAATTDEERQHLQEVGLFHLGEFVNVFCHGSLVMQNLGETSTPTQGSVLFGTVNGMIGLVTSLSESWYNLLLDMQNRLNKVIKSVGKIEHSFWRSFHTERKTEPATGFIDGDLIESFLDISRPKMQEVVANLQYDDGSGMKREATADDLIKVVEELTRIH
Protocol: (§1) After treating the cells with the compounds for 24 hours, the cells were collected and lysed using RIPA protein lysate containing phosphatase inhibitors. The lysate was then placed on ice for 30-60 minutes and centrifuged. The supernatant was aspirated as the extracted total cell protein. The protein concentration of the supernatant was determined using the conventional BCA (Bicinchoninic Acid) assay. The supernatant was then mixed with 4×SDS sample loading buffer, denatured at 95° C. for 5 minutes, and then subjected to SDS-PAGE electrophoresis on a polyacrylamide gel, followed by transfer to a nitrocellulose membrane (NC membrane). The membrane was blocked with blocking buffer at room temperature for 1-2 hours, and then antibody incubation and detection were carried out according to the antibody instructions provided by Cell Signaling Technology.
(§2) Half-Maximal Degradation Concentration value (the drug concentration required for degrading proteins by 50%, abbreviated as DC50) reads method: comparing the gray values of the Western blotting bands for the drug treatment with the gray values of the Western blotting band for the DMSO control, and reading the drug concentration range corresponding to the gray value of the Western blotting bands for the drug treatment which is equal to half of the gray value of the Western blotting band for the DMSO control.
(§3) DC50 value could also be calculated as follows: using software ImageJ to quantify the gray values of the Western blotting bands for the drug treatment, fitting the relationship curve between drug concentrations and gray values, and from the fitted curve, calculating the drug concentration corresponding to half of the gray value of the Western blotting band for the DMSO control.

[3] = target: IKZF3 protein (Homo sapiens (Human), UniProt Q96SW2+Q9UKT9); experiment: Western-blot assay of substrate protein degradation in hPBMC, IKZF3; assay type: cell-based; settings: for residual substrate protein level, IKZF3: hPBMC cells, compound 500 nM, 24 hours, Western blot
IKZF3 protein, sequence (Q9UKT9 whole entry): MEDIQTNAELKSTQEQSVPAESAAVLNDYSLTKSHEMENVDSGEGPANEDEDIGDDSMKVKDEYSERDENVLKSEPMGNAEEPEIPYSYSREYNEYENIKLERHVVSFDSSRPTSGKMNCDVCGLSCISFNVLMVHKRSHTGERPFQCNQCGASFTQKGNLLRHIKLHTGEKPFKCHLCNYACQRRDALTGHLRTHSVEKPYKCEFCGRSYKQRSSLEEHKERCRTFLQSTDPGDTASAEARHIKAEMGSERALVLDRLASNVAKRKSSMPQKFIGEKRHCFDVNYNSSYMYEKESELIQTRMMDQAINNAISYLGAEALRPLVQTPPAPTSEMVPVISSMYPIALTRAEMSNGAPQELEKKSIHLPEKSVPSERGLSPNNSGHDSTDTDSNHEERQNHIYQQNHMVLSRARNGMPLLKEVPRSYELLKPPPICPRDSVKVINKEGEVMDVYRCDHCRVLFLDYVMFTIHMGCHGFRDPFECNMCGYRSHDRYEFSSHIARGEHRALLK
IKZF3 protein, sequence (Q96SW2 whole entry): as the sequence (Q96SW2 whole entry) above
IKZF3 protein, sequence (Q16531 whole entry partner): as the sequence (Q16531 whole entry partner) above
Protocol: as §1, §2, §3

[4] = target: GSPT1 protein (Homo sapiens (Human), UniProt P15170+Q96SW2); experiment: Western-blot assay of substrate protein degradation in hPBMC, GSPT1; assay type: cell-based; settings: for residual substrate protein level, GSPT1: hPBMC cells, compound 500 nM, 24 hours, Western blot
GSPT1 protein, sequence (P15170 whole entry): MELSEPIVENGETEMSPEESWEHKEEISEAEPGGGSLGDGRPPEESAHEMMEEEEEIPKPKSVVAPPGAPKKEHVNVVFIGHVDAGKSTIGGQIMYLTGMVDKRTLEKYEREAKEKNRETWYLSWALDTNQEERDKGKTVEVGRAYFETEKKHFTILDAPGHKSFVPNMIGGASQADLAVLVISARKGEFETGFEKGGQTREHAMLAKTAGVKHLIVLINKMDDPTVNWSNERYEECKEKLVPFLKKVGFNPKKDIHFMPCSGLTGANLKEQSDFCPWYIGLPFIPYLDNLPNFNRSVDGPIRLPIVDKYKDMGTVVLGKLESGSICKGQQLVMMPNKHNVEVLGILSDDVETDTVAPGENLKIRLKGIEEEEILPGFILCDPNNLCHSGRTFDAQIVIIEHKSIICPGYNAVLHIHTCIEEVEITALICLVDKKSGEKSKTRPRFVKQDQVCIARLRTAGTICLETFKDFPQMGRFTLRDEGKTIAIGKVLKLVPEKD
GSPT1 protein, sequence (Q96SW2 whole entry): as the sequence (Q96SW2 whole entry) above
GSPT1 protein, sequence (Q16531 whole entry partner): as the sequence (Q16531 whole entry partner) above
Protocol: as §1, §2, §3

[5] = hPBMC, 24 h, serially diluted 0.03-1000 nM

human Cereblon WT GST-tagged protein, sequence (Q96SW2 whole entry): as the sequence (Q96SW2 whole entry) above

IC50 [1] [nM]	concentration at which significant degradation effects on IKZF1 protein are exhibited (FIG. 1) [2, 5]	concentration at which significant degradation effects on IKZF3 protein are exhibited (FIG. 1) [3, 5]	concentration at which significant degradation effects on GSPT1 protein are exhibited (FIG. 1) [4, 5]	SMILES	residual substrate protein level, IKZF1 [2]	residual substrate protein level, IKZF3 [3]	residual substrate protein level, GSPT1 [4]
480				O=C1CCC(N2Cc3cc(C=C4CN(Cc5ccccc5-c5ccc(Cl)cc5)C4)ccc3C2=O)C(=O)N1 (stereo not shown) [GT-03881, 3-(5-((1-((4′-chloro-[1,1′-biphenyl]-2-yl)methyl)azetidin-3-ylidene)methyl)-1-oxoisoindolin-2-yl)piperidine-2,6-dione]	B (B represents a residual substrate protein level of >50%)	B (B represents a residual substrate protein level of >50%)	A (A represents a residual substrate protein level of <50%)
770				CC1(C)CCC(CN2C[C@@H]3C[C@H]2CN3Cc2ccc3c(c2)CN(C2CCC(=O)NC2=O)C3=O)=C(c2ccc(Cl)cc2)C1 (stereo partly drawn) [GT-03997, 3-(5-(((1S,4S)-5-((4′-chloro-5,5-dimethyl-3,4,5,6-tetrahydro-[1,1′-biphenyl]-2-yl)methyl)-2,5-diazabicyclo[2.2.1]heptan-2-yl)methyl)-1-oxoisoindolin-2-yl)piperidine-2,6-dione]	A (A represents a residual substrate protein level of <50%)	A (A represents a residual substrate protein level of <50%)	B (B represents a residual substrate protein level of >50%)
660				CC1(C)CCC(CN2CC3CCC2CN3Cc2ccc3c(c2)CN(C2CCC(=O)NC2=O)C3=O)=C(c2ccc(Cl)cc2)C1 (stereo not shown) [GT-04167, 3-(5-((5-((4′-chloro-5,5-dimethyl-3,4,5,6-tetrahydro-[1,1′-biphenyl]-2-yl)methyl)-2,5-diazabicyclo[2.2.2]octan-2-yl)methyl)-1-oxoisoindolin-2-yl)piperidine-2,6-dione]	B (B represents a residual substrate protein level of >50%)	B (B represents a residual substrate protein level of >50%)	B (B represents a residual substrate protein level of >50%)
550				CC1(C)CCC(CN2CC3CCC2CN3Cc2ccc3c(c2F)CN(C2CCC(=O)NC2=O)C3=O)=C(c2ccc(Cl)cc2)C1 (stereo not shown) [GT-04168, 3-(5-((5-((4′-chloro-5,5-dimethyl-3,4,5,6-tetrahydro-[1,1′-biphenyl]-2-yl)methyl)-2,5-diazabicyclo[2.2.2]octan-2-yl)methyl)-4-fluoro-1-oxoisoindolin-2-yl)piperidine-2,6-dione]	B (B represents a residual substrate protein level of >50%)	B (B represents a residual substrate protein level of >50%)	A (A represents a residual substrate protein level of <50%)
460				O=C1CCC(N2Cc3cc(CN4CCN(CC5=C(c6ccc(F)cc6)CCCC5)CC4)ccc3C2=O)C(=O)N1 (stereo not shown) [GT-04193, 3-(5-((4-((4′-fluoro-3,4,5,6-tetrahydro-[1,1′-biphenyl]-2-yl)methyl)piperazin-1-yl)methyl)-1-oxoisoindolin-2-yl)piperidine-2,6-dione]	A (A represents a residual substrate protein level of <50%)	A (A represents a residual substrate protein level of <50%)	A (A represents a residual substrate protein level of <50%)
1160	below 30 nM	below 30 nM	below 30 nM	O=C1CCC(N2Cc3cc(CN4CCN(C(=O)c5ccccc5-c5ccc(F)cc5)CC4)ccc3C2=O)C(=O)N1 (stereo not shown) [GT-04194, 3-(5-((4-(4′-fluoro-[1,1′-biphenyl]-2-carbonyl)piperazin-1-yl)methyl)-1-oxoisoindolin-2-yl)piperidine-2,6-dione]	B (B represents a residual substrate protein level of >50%)	A (A represents a residual substrate protein level of <50%)	A (A represents a residual substrate protein level of <50%)
460				O=C1CCC(N2Cc3cc(CN4CCN(Cc5ccncc5-c5ccc(Cl)cc5)CC4)ccc3C2=O)C(=O)N1 (stereo not shown) [GT-04275, 3-(5-((4-((3-(4-chlorophenyl)pyridin-4-yl)methyl)piperazin-1-yl)methyl)-1-oxoisoindolin-2-yl)piperidine-2,6-dione]	A (A represents a residual substrate protein level of <50%)	A (A represents a residual substrate protein level of <50%)	A (A represents a residual substrate protein level of <50%)
1610				CC1(C)CCC(CN2CCN(Cc3ccc4c(c3)C(=O)N(C3CCC(=O)NC3=O)C4=O)CC2)=C(c2ccc(F)cc2)C1 (stereo not shown) [GT-05395, 2-(2,6-dioxopiperidin-3-yl)-5-((4-((4′-fluoro-5,5-dimethyl-3,4,5,6-tetrahydro-[1,1′-biphenyl]-2-yl)methyl)piperazin-1-yl)methyl)isoindoline-1,3-dione]	B (B represents a residual substrate protein level of >50%)	A (A represents a residual substrate protein level of <50%)	A (A represents a residual substrate protein level of <50%)
590				CC1(C)CCC(CN2CC3CC2CN3Cc2ccc3c(c2)CN(C2CCC(=O)NC2=O)C3=O)=C(c2ccc(F)cc2)C1 (stereo not shown) [GT-05401, 3-(5-((5-((4′-fluoro-5,5-dimethyl-3,4,5,6-tetrahydro-[1,1′-biphenyl]-2-yl)methyl)-2,5-diazabicyclo[2.2.1]heptan-2-yl)methyl)-1-oxoisoindolin-2-yl)piperidine-2,6-dione]	B (B represents a residual substrate protein level of >50%)	A (A represents a residual substrate protein level of <50%)	B (B represents a residual substrate protein level of >50%)

SMILES	IC50 [1] [nM]	concentration at which significant degradation effects on IKZF1 protein are exhibited (FIG. 1) [2, 5]	concentration at which significant degradation effects on IKZF3 protein are exhibited (FIG. 1) [3, 5]	concentration at which significant degradation effects on GSPT1 protein are exhibited (FIG. 1) [4, 5]	residual substrate protein level, IKZF1 [2]	residual substrate protein level, IKZF3 [3]	residual substrate protein level, GSPT1 [4]
CC1(C)CCC(CN2CC3CCC(C2)N3Cc2ccc3c(c2F)CN(C2CCC(=O)NC2=O)C3=O)=C(c2ccc(Cl)cc2)C1 (stereo not shown) [GT-03890, 3-(5-((3-((4′-chloro-5,5-dimethyl-3,4,5,6-tetrahydro-[1,1′-biphenyl]-2-yl)methyl)-3,8-diazabicyclo[3.2.1]octan-8-yl)methyl)-4-fluoro-1-oxoisoindolin-2-yl)piperidine-2,6-dione]	510				B (B represents a residual substrate protein level of >50%)	A (A represents a residual substrate protein level of <50%)	A (A represents a residual substrate protein level of <50%)
CC1(C)CCC(CN2CC3CC(C2)N3Cc2ccc3c(c2)C(=O)N(C2CCC(=O)NC2=O)C3=O)=C(c2ccc(Cl)cc2)C1 (stereo not shown) [GT-05368, 5-((3-((4′-chloro-5,5-dimethyl-3,4,5,6-tetrahydro-[1,1′-biphenyl]-2-yl)methyl)-3,6-diazabicyclo[3.1.1]heptan-6-yl)methyl)-2-(2,6-dioxopiperidin-3-yl)isoindoline-1,3-dione]	1800				B (B represents a residual substrate protein level of >50%)	A (A represents a residual substrate protein level of <50%)	A (A represents a residual substrate protein level of <50%)
CC1(C)CCC(CN2CC3CC(C2)N3Cc2ccc3c(c2)CN(C2CCC(=O)NC2=O)C3=O)=C(c2ccc(F)cc2)C1 (stereo not shown) [GT-05399, 3-(5-((3-((4′-fluoro-5,5-dimethyl-3,4,5,6-tetrahydro-[1,1′-biphenyl]-2-yl)methyl)-3,6-diazabicyclo[3.1.1]heptan-6-yl)methyl)-1-oxoisoindolin-2-yl)piperidine-2,6-dione]	430				B (B represents a residual substrate protein level of >50%)	B (B represents a residual substrate protein level of >50%)	A (A represents a residual substrate protein level of <50%)
CC1(C)CCC(CN2CC3CCC(C2)N3Cc2ccc3c(c2)CN(C2CCC(=O)NC2=O)C3=O)=C(c2ccc(F)cc2)C1 (stereo not shown) [GT-05400, 3-(5-((3-((4′-fluoro-5,5-dimethyl-3,4,5,6-tetrahydro-[1,1′-biphenyl]-2-yl)methyl)-3,8-diazabicyclo[3.2.1]octan-8-yl)methyl)-1-oxoisoindolin-2-yl)piperidine-2,6-dione]	840				B (B represents a residual substrate protein level of >50%)	B (B represents a residual substrate protein level of >50%)	A (A represents a residual substrate protein level of <50%)
